The experiment relates to SARS-CoV-2 USA-WA1/2020. Briefly: Neutralization assay of SARS-CoV-2 with EGCG, quantified by Avicel plaque reduction assay on VeroE6 cells. The conditions noted are these: for IC50: normalized against control (virus in DMEM). Format: cell-based. A general note: Plaques are areas of infected cells; plaque reduction assays count them against a control.

≈ marks a conversion by molar mass, not a printed value.

As to `O=C(O[C@@H]1Cc2c(O)cc(O)cc2O[C@@H]1c1cc(O)c(O)c(O)c1)c1cc(O)c(O)c(O)c1` [EGCG, epigallocatechin gallate], where the note is “FIG. 1, plaque reduction”, the “in vitro antiviral activity on vero cells infected with SARS-CoV-2” value is “strong in vitro antiviral activity”. Further, the IC50 (as a rule, the midpoint of a concentration-inhibition curve) reads like this: (dilution series 1) 42.65 µg/mL (≈ 93 µM); (dilution series 2) 32.89 µg/mL (≈ 71.8 µM); (dilution series 3) 36.09 µg/mL (≈ 78.7 µM).

These data come from US20240050399A1, “PHARMACEUTICAL COMPOSITIONS, COMPRISING A COMBINATION OF SELECT CARRIERS AND […] ANTIPATHOGENS” (EpitoGenesis, Inc., priority 2020, published 2024).
